In ChEMBL document CHEMBL3885861, “Open TG-GATES”:

Species on record: Rattus norvegicus
Test: Open TG-GATES - Regimen: Single
Format: toxicity, organism-based, Sprague-Dawley
Set-up: regimen Single, gender Male, age 6 weeks
Details: in vivo, po, 0 mg/kg, route gavage, dose level Control; for APTT / Bas / Eos / Fbg / Hb / Ht / Lym / MCH / MCHC / MCV / Mono / Neu / PT / Plat / RBC / Ret / WBC: tissue Blood; for KIDNEY_L / KIDNEY_R / KIDNEY_TOTAL: tissue Kidney; for LIVER: tissue Liver; for A/G / ALP / ALT / AST / BUN / CRE / Ca / Cl / DBIL / GLC / IP / K / LDH / Na / PL / RALB / TBIL / TC / TG / TP / gamma-GTP: tissue Plasma

## COc1ccc(Cc2nccc3cc(OC)c(OC)cc23)cc1OC [PAPAVERINE]
3 h
  TERMINAL_BW: 223.5 g
  APTT: 21.8 s
  Bas: 0%
  Eos: 0.8%
  Fbg: 332.6 mg/dL
  Hb: 13.5 g/dL
  Ht: 40.3%
  Lym: 80.6%
  MCH: 21.3 pg
  MCHC: 33.5%
  MCV: 63.4 fL
  Mono: 2.2%
  Neu: 15%
  PT: 15.8 s
  Plat: 108.7 x10_4/uL
  RBC: 637.4 x10_4/ul
  Ret: 7.9%
  WBC: 110.9 x10_2/uL
  KIDNEY_L: 1 g
  KIDNEY_R: 1 g
  KIDNEY_TOTAL: 2 g
  LIVER: 10.2 g
  A/G: 1.2
  ALP: 1651.2 IU/L
  ALT: 42.8 IU/L
  AST: 73 IU/L
  BUN: 14 mg/dL
  CRE: 0.1 mg/dL
  Ca: 11 mg/dL
  Cl: 108.6 meq/L
  DBIL: 0 mg/dL
  GLC: 193.6 mg/dL
  IP: 7.8 mg/dL
  K: 4 meq/L
  LDH: 147.2 IU/L
  Na: 141.6 meq/L
  PL: 140.2 mg/dL
  RALB: 3 g/dL
  TBIL: 0.01 mg/dL
  TC: 82.6 mg/dL
  TG: 55 mg/dL
  TP: 5.5 g/dL
  gamma-GTP: 2 IU/L
6 h
  TERMINAL_BW: 214 g
  APTT: 23 s
  Bas: 0%
  Eos: 0.6%
  Fbg: 325.8 mg/dL
  Hb: 13.8 g/dL
  Ht: 41.4%
  Lym: 82.8%
  MCH: 20.8 pg
  MCHC: 33.3%
  MCV: 62.5 fL
  Mono: 2.2%
  Neu: 13.4%
  PT: 15.9 s
  Plat: 116.4 x10_4/uL
  RBC: 664 x10_4/ul
  Ret: 7.4%
  WBC: 118.9 x10_2/uL
  KIDNEY_L: 0.9 g
  KIDNEY_R: 0.9 g
  KIDNEY_TOTAL: 1.8 g
  LIVER: 9.4 g
  A/G: 1.2
  ALP: 1310.2 IU/L
  ALT: 38.4 IU/L
  AST: 74.4 IU/L
  BUN: 10 mg/dL
  CRE: 0.1 mg/dL
  Ca: 11 mg/dL
  Cl: 106.2 meq/L
  DBIL: 0.002 mg/dL
  GLC: 180.6 mg/dL
  IP: 8.8 mg/dL
  K: 4.3 meq/L
  LDH: 159.6 IU/L
  Na: 140.8 meq/L
  PL: 131.6 mg/dL
  RALB: 2.9 g/dL
  TBIL: 0.01 mg/dL
  TC: 79.2 mg/dL
  TG: 47.6 mg/dL
  TP: 5.3 g/dL
  gamma-GTP: 2 IU/L
9 h
  TERMINAL_BW: 213.9 g
  APTT: 22.9 s
  Bas: 0%
  Eos: 1%
  Fbg: 312.8 mg/dL
  Hb: 13.1 g/dL
  Ht: 39.9%
  Lym: 81.2%
  MCH: 20.3 pg
  MCHC: 33%
  MCV: 61.6 fL
  Mono: 2.4%
  Neu: 14.4%
  PT: 15.6 s
  Plat: 107.7 x10_4/uL
  RBC: 647.6 x10_4/ul
  Ret: 7.9%
  WBC: 110.4 x10_2/uL
  KIDNEY_L: 0.9 g
  KIDNEY_R: 0.9 g
  KIDNEY_TOTAL: 1.9 g
  LIVER: 9.1 g
  A/G: 1.3
  ALP: 1489.8 IU/L
  ALT: 41.2 IU/L
  AST: 69.4 IU/L
  BUN: 11.2 mg/dL
  CRE: 0.1 mg/dL
  Ca: 10.9 mg/dL
  Cl: 105.8 meq/L
  DBIL: 0 mg/dL
  GLC: 190.8 mg/dL
  IP: 9.1 mg/dL
  K: 4.2 meq/L
  LDH: 169 IU/L
  Na: 140.6 meq/L
  PL: 134.6 mg/dL
  RALB: 3 g/dL
  TBIL: 0.016 mg/dL
  TC: 78.4 mg/dL
  TG: 75 mg/dL
  TP: 5.3 g/dL
  gamma-GTP: 1.6 IU/L
24 h
  TERMINAL_BW: 237.4 g
  APTT: 21.6 s
  Bas: 0%
  Eos: 1%
  Fbg: 315.8 mg/dL
  Hb: 13.5 g/dL
  Ht: 40%
  Lym: 81%
  MCH: 21 pg
  MCHC: 33.6%
  MCV: 62.6 fL
  Mono: 2.8%
  Neu: 14.6%
  PT: 16 s
  Plat: 106.2 x10_4/uL
  RBC: 639.4 x10_4/ul
  Ret: 7.5%
  WBC: 110.4 x10_2/uL
  KIDNEY_L: 1 g
  KIDNEY_R: 1 g
  KIDNEY_TOTAL: 2.1 g
  LIVER: 11.3 g
  A/G: 1.3
  ALP: 1563.2 IU/L
  ALT: 46.2 IU/L
  AST: 72.2 IU/L
  BUN: 15.4 mg/dL
  CRE: 0.1 mg/dL
  Ca: 10.8 mg/dL
  Cl: 106.2 meq/L
  DBIL: 0 mg/dL
  GLC: 198.2 mg/dL
  IP: 7.9 mg/dL
  K: 4.4 meq/L
  LDH: 179.4 IU/L
  Na: 143 meq/L
  PL: 142.6 mg/dL
  RALB: 3 g/dL
  TBIL: 0.01 mg/dL
  TC: 77 mg/dL
  TG: 87.8 mg/dL
  TP: 5.3 g/dL
  gamma-GTP: 1.8 IU/L
